Assays:
[1] = system: signaling kinases in hypothalamus and liver; assay: Western blot of other signaling in hypothalamus and liver after ICV infusion; format: in vivo, rat; conditions: ICV HN
Description: The indicated tissues were homogenized in 20 mM MOPS, 2 mM EGTA, 5 mM EDTA, 30 mM sodium fluoride, 40 mM beta-glycerophosphate, 10 mM sodium pyrophosphate, 2 mM orthovanadate, 0.5% NP-40 and complete protease inhibitor cocktail (Roche, Indianapolis, Ind., USA) and centrifuged at 12,000 g for 15 min and the supernatant was harvested while carefully avoiding the lipid layer on top. Protein concentration was measured with a BCA protein quantification kit (Pierce, Rockford, Ill., USA). Protein extracts were separated on 4-12% NuPAGE (Invitrogen, Carlsbad, Calif., USA) gels and were blotted onto Immobilon FL PVDF (Millipore, Billerica, Mass., USA). […] After three washes in TBS-T and a final wash in TBS the blots were scanned using the LI-COR Odyssey (LI-COR, Lincoln, Nebr., USA) and quantified using Odyssey 2.0 software based on direct fluorescence measurement.
For acute signaling studies, rats were injected ICV with either aCSF, 20 μg of HN or F6A (dissolved in aCSF) over 5 min, and sacrificed 30 min later. […] Samples were also obtained from these tissues at the end of the clamp and western blot analysis was performed as described previously (Muzumdar et al. 2003) The blots were scanned using the LI-COR Odyssey (LI-COR, Lincoln, Nebr., USA) and quantified using Odyssey 2.0 software based on direct fluorescence measurement. […]

primary hepatocytes = assay: Glucose production of primary isolated hepatocytes; format: cell-based; conditions: rat hepatocytes explant cultures
Description: (§1) Single-cell suspensions of hepatocytes were obtained from perfusions of Sprague-Dawley rats using the procedure of Berry and Friend (1969) and the perfusion mixture of Leffert et al (1979). Hepatocyte glucose production was estimated after a 24 hr treatment with HN, F6A and saline as described before (Berg et al. 2001). In a separate set of experiment, hepatocytes were lysed, and protein extracted in RIPA lysis buffer at 30, 60 and 360 min post treatment with FIN, F6A and saline. The cell lysates were then subject to western blotting for Phospho-STAT3 (Tyr705), total-STAT3, Phospho-AKT (Ser473), and total-AKT expression (antibodies purchased from Cell Signaling, #9131, #9132, #9271, #9272).

[2] = system: pAKT and pSTAT-3 in hepatocytes; assay: Western blot of Phospho-STAT3 and Phospho-AKT in primary hepatocytes; format: cell-based, rat
Description: as §1

Sprague-Dawley rats = assay: Peripheral IGFBP-3 infusion during hyperinsulinemic clamp; format: in vivo, rat
Description: To study the acute effects of an infusion of IGFBP-3, two groups of awake, unstressed, chronically catheterized Sprague-Dawley rats (˜300 g) were studied for 300 min (n=6 in each group) under hyperinsulinemic clamp (as previously described). From 120 min the rats received a primed continuous infusion of IGFBP-3 (0.06 mg/kg/hr) or saline (control) for an additional 3 h.
Plasma samples for determination of [^3H]glucose and [^3H] water specific activities were obtained at 10-min intervals during the basal and clamp periods. Steady state conditions for the plasma glucose concentration and specific activity were achieved within 90 min in all the studies. Plasma samples for determination of plasma IGF-1 (rat and human), IGFBP-3 (human IGFBP-3), GH, insulin, leptin, and FFA concentrations were collected at 30-min intervals throughout the study. All determinations were also performed on portal vein blood obtained at the end of the experiments. The total amount of blood drawn during the entire study for various assays is ˜3 cc. After separation of plasma (subsequently used for analysis), the red blood cells were reconstituted in saline and infused back into the animal.
Plasma glucose (sample volume 10 μl) was measured by the glucose oxidase method (Glucose Analyzer II, Beckman Instruments, Palo Alto, Calif.). Plasma [^3H]glucose radioactivity was measured in duplicates in the supernatants of Ba(OH)2 and ZnSO4 precipitates of plasma samples (20 μl) after evaporation to dryness to eliminate tritiated water. […] Plasma insulin (10 μl) was measured by RIA using rat insulin standard for basal studies and human insulin standard for insulin clamp studies. […] Plasma non-esterified fatty acid concentrations (5 μl) were determined by an enzymatic method with an automated kit according to the manufacturer's specification (Waco Pure Chemical Industries, Osaka, Japan). Rat IGF-1 (50 μl) was measured with a rIGF-1 ELISA kit (DSL, Webster, Tex.). Human IGF-1 (50 μl) was measured with an in-house kit developed in UCLA using a double monoclonal antibody ELISA with sensitivity of 0.1 ng/ml and an intra-assay and inter-assay coefficient of variations which are <6% and <8%, respectively, in the range from 1 to 6 ng/ml. Human IGFBP-3 (30 μl) was measured with an ELISA kit (DSL, Webster, Tex.). This kit reads both IGFBP-3 and NLS IGFBP-3. […] Serum levels of rat growth hormone were determined using an enzyme immunoassay (EIA) kit (ALPCO, Windham, N.H.) according to the manufacturer's instructions. […]
Under steady-state conditions for plasma glucose concentrations, the rate of glucose disappearance (Rd) equals the rate of glucose appearance (Ra). The latter was calculated as the ratio of the rate of infusion of [3-^3H]glucose (dpm/min) and the steady-state plasma [^3H]glucose specific activity (dpm/mg). […]

IGF-1 = IGF-1 (Homo sapiens, UniProt P05019); assay: Western ligand blots with 125I-labeled IGF-1; format: binding; conditions: data not shown
Sequence of IGF-1 (P05019 49-118): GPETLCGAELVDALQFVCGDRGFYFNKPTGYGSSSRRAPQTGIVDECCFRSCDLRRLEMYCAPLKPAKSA

[3] = 0.06 mg/kg/hr IV, hyperinsulinemic clamp

| pAKT or pSTAT-3 in hepatocytes [2] | binding to 125I-labeled IGF-1 (IGF-1) | Compound | liver pAKT, PGC-1b, FAS, p38, CREB, ACC vs control groups [1] | phosphorylation in other signaling kinases in the hypothalamus including AKT [1] | glucose production rates with and without HN (primary hepatocytes) | human IGFBP-3 levels during the IGFBP-3 infusion (Sprague-Dawley rats; 0.06 mg/kg/hr IV for 3 h) | higher HGP compared to controls (Sprague-Dawley rats; [3]) | reduction in insulin stimulated glucose uptake compared to controls (Sprague-Dawley rats; [3]) | level in rat CSF after peripheral infusion, mean (Sprague-Dawley rats; peripherally infused IGFBP-3) |
| --- | --- | --- | --- | --- | --- | --- | --- | --- | --- |
| did not elicit significant changes |  | CC[C@H](C)[C@H](NC(=O)[C@H](CCC(=O)O)NC(=O)[C@H](CO)NC(=O)[C@@H](NC(=O)[C@H](CC(C)C)NC(=O)[C@H](CC(C)C)NC(=O)[C@H](CC(C)C)NC(=O)[C@H](CC(C)C)NC(=O)[C@H](CS)NC(=O)[C@H](CO)NC(=O)[C@H](Cc1ccccc1)NC(=O)CNC(=O)[C@H](CCCNC(=N)N)NC(=O)[C@@H]1CCCN1C(=O)[C@H](C)NC(=O)[C@@H](N)CCSC)[C@@H](C)O)C(=O)N[C@@H](CC(=O)O)C(=O)N[C@@H](CC(C)C)C(=O)N1CCC[C@H]1C(=O)N[C@H](C(=O)N[C@@H](CCCCN)C(=O)N[C@@H](CCCNC(=N)N)C(=O)N[C@@H](CCCNC(=N)N)C(=O)N[C@@H](C)C(=O)O)C(C)C [Humanin, maprgfscll lltseidlpv krra] | no significant differences | Unchanged levels of phosphorylation | not different |  |  |  |  |
|  | bound equally | IGFBP-3: non glycosylated hIGFBP-3 (IGF binding protein-3), provided by Celtrix |  |  |  | 1960 ± 360 ng/mL | 30% | ~17% | 7 ng/mL |
